Experimental data: patent US8334298B2, “Treatment or prevention of ovarian hyperstimulation syndrome (OHSS) using a dopamine agonist” (Ferring International Center S.A., priority 2005, dated 2012)
Where “and” joins values, the source holds several entries; their conditions need not be identical. Equal values may be shown once.

Legend:
OHSS rats = test: Dose response of quinagolide on vascular permeability in OHSS rats (Example 4); format: in vivo, Wistar rats; settings: cabergoline 150 ug/kg oral (positive control); single rat; 48-56 h after hCG; listed as Cb
Protocol: Inducing OHSS manifestations. A total of 96 female immature Wistar rats (Harlan Iberica, Sant Feliu de Codina, Barcelona, SPAIN), weighing from 42-48 grams at the beginning of these experiments (day 22), were used to carry out the studies disclosed in Examples 4 and 5. They were injected subcutaneously (s.c) with 10 IU of Pregnant Mare's Serum Gonadotropin (PMSG) (Sigma) for 4 consecutive days (days 22-25), followed by administered intraperitoneally (i.p.) with 30 IU of hCG on the fifth day (day 26) in order to induce OHSS clinical manifestations.
Measuring vascular permeability (VP). VP was used as an index to estimate and compare the degree of development of the illness. VP was measured in all animals 48-56 hours after hCG administration, following methodology previously described (Gomez et al., supra). Briefly, 0.2 ml Evans Blue dye, 0.05 M, was injected through the femoral vein. After 30 minutes, the peritoneal cavity was irrigated with 5 ml saline, pH 6, 22° C., and massaged for 30 seconds to recover extravasated dye. The peritoneal fluid was recovered in 13 ml tubes containing 0.1 ml NaOH. The tubes were centrifuged at 900×g for 12 minutes to avoid protein interference. The supernatant was filtered through 0.22 um filters in order to eliminate ascitic protein/fibrin mucus which could interfere in the posterior measurements. Finally the absorbance of the extravasated dye was measured at 595 nm using a spectrophotometer. Average and average deviations in each group (see below) were calculated. VP was expressed as μg extravasated Evans Blue dye/100 g body weight in each animal.
A total of 70 rats were used for this study. All 70 rats were administered PMSG/hCG to induce OHSS symptoms, as described above. Quinagolide (batch no. 1010003004; supplied by Ferring Labs) was administered to 56 rats. The 56 rats that received quinagolide were used as a dose response test group. […] Cabergoline (Dostinex®) was administered to 6 rats as a positive control. The specific details of the dosing regimen for each group is as follows:
Vehicle control group (quinagolide 0 μg/kg) (n=8). Eight rats were implanted with prolactin placebo pellets, 5 days release, between 10:00 to 11:00 on day 26, just following hCG injection (see General Procedures, above). Six hours after pellet implantation, the rats in this group were orally administered vehicle solution (1:6 alcohol in water mixture) (without quinagolide). They received another oral vehicle administration of vehicle solution 24 hours later. Experimental groups (quinagolide at 0.1, 0.3, 1, 3, 10, 25, 50 μg/kg/day to 7 test groups of rats) (n=8 in each test group). The rats in these groups were implanted with prolactin pellets, 5 days release, between 10:00 to 11:00 on day 26, just following hCG injection (see General Procedures, above). […] In this manner, the desired 0.1, 0.3, 1, 3, 10, 25, 50 μg/kg doses to be assayed were achieved. Twenty four hours later, the rats in this group were administered with another dose of the same amounts of quinagolide. Positive (cabergoline) control group (n=6). These six rats were implanted with prolactin pellets, 5 days release, between 10:00 to 11:00 .m on day 26, just following hCG injection. […] Twenty four hours later, the rats in this group were administered with another dose of the same amount of cabergoline. […] Reconstitution and dilution process to reach appropriate quinagolide doses for oral administration. Appropriate doses were prepared fresh just prior to being administered (on day 26). A single quinagolide vial, containing approximately 2.30-2.30 mg quinagolide, was employed for each single set of animals. For each solution, approximately 2.30-2.30 mg quinagolide was diluted in a vehicle solution (1:6 alcohol:water mixture) to achieve a stock concentration of 100 μg quinagolide per ml solution. […]

[1] = test system: women with PCOS and hyperprolactinemia; settings: during ovarian induction with GnRH agonist, FSH and hCG; cited from earlier work

With `C=CCN1C[C@H](C(=O)N(CCCN(C)C)C(=O)NCC)C[C@@H]2c3cccc4[nH]cc(c34)C[C@H]21` [Cabergoline, cabergoline] the “Absorbance at 595 nm” value (OHSS rats) was 0.356 and 0.034 and 0.1 (2×) and 0.293, the “μg EB per 100 g body weight” value (OHSS rats) was 21.56 μg EB per 100 g body weight and 2.118 μg EB per 100 g body weight and 6.507 μg EB per 100 g body weight and 6.229 μg EB per 100 g body weight and 17.99 μg EB per 100 g body weight and the “μg Evans Blue (Abs * 4360)” value (OHSS rats) was 1552.16 μg and 148.24 μg and 436 μg (2×) and 1277.48 μg. For the same molecule, the “risk of OHSS” value [1] was “reduce the risk of OHSS”.
